{
  "source": "patent US11549123B2",
  "about": "“Plant EPSP synthases and methods of use” (PIONEER HI-BRED INTERNATIONAL, INC., priority 2015, dated 2023)",
  "format_in_all_cases": "biochemical",
  "key": {"[1]": {"biological_target": "T1, Zea mays EPSPS variant Zm-A189T (Zea mays, UniProt O24566, A188T)", "T1 sequence (O24566 with tags, fused parts or gaps A188T)": "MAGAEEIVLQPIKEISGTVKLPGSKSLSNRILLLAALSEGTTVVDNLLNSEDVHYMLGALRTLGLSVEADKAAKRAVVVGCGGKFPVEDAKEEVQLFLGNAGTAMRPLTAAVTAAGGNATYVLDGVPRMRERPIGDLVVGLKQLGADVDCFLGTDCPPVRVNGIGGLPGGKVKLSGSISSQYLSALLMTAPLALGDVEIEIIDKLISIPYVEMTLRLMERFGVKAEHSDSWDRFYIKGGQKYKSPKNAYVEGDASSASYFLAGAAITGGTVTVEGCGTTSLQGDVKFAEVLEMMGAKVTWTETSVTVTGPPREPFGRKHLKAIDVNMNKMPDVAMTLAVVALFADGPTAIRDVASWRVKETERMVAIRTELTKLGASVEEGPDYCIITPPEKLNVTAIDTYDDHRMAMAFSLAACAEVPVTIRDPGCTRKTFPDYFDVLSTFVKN", "assay": "Substrate saturation kinetic analysis with glyphosate, Zm-A189T"}, "[2]": {"biological_target": "T2, Zea mays EPSPS variant Zm-H6 (868-H6) with R61Y (H6-R61Y) (Zea mays, UniProt O24566, A1R/A3W/A415G/A71Q/D401G/E301S/E390G/G101A/I207L/K83R/L97C/R60Y/T278A/T360S/T440Q/V437R)", "T2 construct": "868-H6 plus R61Y; E. coli BL21(DE3), Ni-NTA purified", "T2 sequence (O24566 with tags, fused parts or gaps A1R/A3W/R60Y/A71Q/K83R/L97C/G101A/I207L/T278A/E301S/T360S/E390G/D401G/A415G/V437R/T440Q)": "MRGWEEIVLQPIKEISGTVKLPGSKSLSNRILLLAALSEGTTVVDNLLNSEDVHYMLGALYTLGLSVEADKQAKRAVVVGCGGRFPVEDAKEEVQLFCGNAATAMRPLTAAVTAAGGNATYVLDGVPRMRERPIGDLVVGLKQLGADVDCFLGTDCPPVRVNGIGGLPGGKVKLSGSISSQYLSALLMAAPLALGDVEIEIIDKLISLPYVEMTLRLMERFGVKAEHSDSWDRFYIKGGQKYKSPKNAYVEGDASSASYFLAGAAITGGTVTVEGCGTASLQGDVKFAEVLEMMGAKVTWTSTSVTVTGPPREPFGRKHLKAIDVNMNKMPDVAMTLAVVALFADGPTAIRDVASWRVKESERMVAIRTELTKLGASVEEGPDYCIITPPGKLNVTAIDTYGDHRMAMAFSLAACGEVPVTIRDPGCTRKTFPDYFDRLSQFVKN", "assay": "Substrate saturation kinetic analysis with glyphosate, H6-R61Y"}, "[3]": {"biological_target": "T3, Zea mays EPSPS variant Zm-T103A (Zea mays, UniProt O24566, T102A)", "T3 construct": "native maize plus T103A; E. coli BL21(DE3), Ni-NTA purified", "T3 sequence (O24566 with tags, fused parts or gaps T102A)": "T1 sequence (O24566 with tags, fused parts or gaps A188T) with T103A, T189A", "assay": "Substrate saturation kinetic analysis with glyphosate, Zm-T103A"}, "[4]": {"biological_target": "T4, Zea mays EPSPS variant Zm-H6 (868-H6) with A69V (H6-A69V) (Zea mays, UniProt O24566, A1R/A3W/A415G/A68V/A71Q/D401G/E301S/E390G/G101A/I207L/K83R/L97C/T278A/T360S/T440Q/V437R)", "T4 sequence (O24566 with tags, fused parts or gaps A1R/A3W/A68V/A71Q/K83R/L97C/G101A/I207L/T278A/E301S/T360S/E390G/D401G/A415G/V437R/T440Q)": "T2 sequence (O24566 with tags, fused parts or gaps A1R/A3W/R60Y/A71Q/K83R/L97C/G101A/I207L/T278A/E301S/T360S/E390G/D401G/A415G/V437R/T440Q) with Y61R, A69V", "assay": "Rapid two-rate method for (kcat/KM)*KI, H6-A69V", "details": "[E] 0.07 uM, [Gly] 1000 uM", "from_the_text": "There are several practical considerations for accurately estimating (kcat/KM)*KI with the rapid method. […] 2) The inhibitor concentration must be adjusted so as to obtain a degree of inhibition that minimally amplifies the error in the term v0-vi in Equation 3. If inhibition is too little, v0-vi will be small, and the error in the multiplier vi×v0/(v0-vi) will be large. […] 3) Substrate concentration should be set at the approximate KM of the parental variant(s), subject to the sensitivity of the assay. High substrate concentration obscures sensitivity to the inhibitor and reduces stringency for capturing improvements in KM. Depending on the necessity for speed, there exists opportunity for customizing enzyme and inhibitor concentrations. […] The rapid method was repeated for those and obtained data that correlated better with data obtained by substrate saturation analysis. For screening purposes however, that correlation step is not necessary. Conditions can be set so that variants with a pre-determined minimal fitness level are accurately quantified.\nIn Table 15, parameters above the heavy line for the rapid method were obtained under standard conditions. For variants shown below the heavy line, the rapid analysis was repeated with enzyme or glyphosate concentrations adjusted as needed to generate sufficient signal within the limits for linear initial rates."}},
  "note": "Where a chain is given by its changes, count along the chain named.",
  "data": [
    {"smiles": "O=C(O)CNCP(=O)(O)O", "note": "[glyphosate, N-phosphonomethylglycine]", "values": [
      {"measurement": "Ki", "setting": "[1]", "value": 337, "unit": "µM"},
      {"measurement": "(kcat/KM)*KI", "setting": "[1]; substrate saturation, Zm-A189T", "value": 283},
      {"measurement": "Ki", "setting": "[2]", "value": 309, "unit": "µM"},
      {"measurement": "(kcat/KM)*KI", "setting": "[2]; substrate saturation, H6-R61Y", "value": 1640},
      {"measurement": "Ki", "setting": "[3]", "value": 208, "unit": "µM"},
      {"measurement": "(kcat/KM)*KI", "setting": "[3]; substrate saturation, Zm-T103A", "value": 321},
      {"measurement": "(kcat/KM)*KI", "setting": "[4]", "value": 2977}
    ]}
  ]
}
